Source: US9187396B2, “Compositions and methods for the treatment of glomerulonephritis” (Avexxin AS, priority 2009, dated 2015)

Key:
[1] = system: IIA-sPLA2 protein expression in mesangial cells; assay: cytokine-stimulated sPLA2 protein expression and secretion, Western blot; type: cell-based, rat; details: IL-1β (1 nM), supernatants
Description: (§1) FIGS. 2A to 2C show the effect of the inhibitors of the examples on cytokine-stimulated sPLA2 protein (FIG. 2A) and mRNA (FIG. 2B) expression and promoter activity in mesangial cells. Quiescent cells were stimulated with either DMEM (−), or IL-1β (1 nM) in the absence (−) or presence of AKH-217 (etOH), vehicle control. In FIG. 2A, supernatants were taken for protein precipitation and precipitated proteins were separated by SDS-PAGE and subjected to a Western blot analysis using a monoclonal antibody against rat sPLA2. […] In FIG. 2B, cells were taken for RNA extraction and subjected to quantitative PCR analysis of rat IIA-sPLA2 and 18 S RNA. ΔΔCt values were calculated and results are expressed as % of maximal IL-1β-stimulated response and are means+S.D. (n=3). In FIG. 2C, cells were transfected with the sPLA2 promoter construct plus a plasmid coding for the Renilla luciferase. After transfection, cells were stimulated for 24 h with vehicle (−), IL-1β (1 nM), or IL-1β plus 10 μM of AKH-217. sPLA2 promoter activity was calculated and results are expressed as relative luciferase units (RLU) and are means±S.D. (n=3).
(§2) It has been previously shown that the cytokine-induced PGE2 formation in mesangial cells involves both sPLA2 and cPLA2 activation (Pfeilschifter et al., 1993), we then investigated the effect of the inhibitors above on sPLA2 protein and mRNA expressions. […]

[2] = system: IIA-sPLA2 mRNA expression in mesangial cells; assay: cytokine-stimulated IIA-sPLA2 mRNA expression, quantitative PCR; type: cell-based, rat; details: IL-1β (1 nM)
Description: as §1, §2

rat IIA-sPLA2 promoter = assay: sPLA2 promoter activity, luciferase reporter gene assay; type: cell-based; details: IL-1β (1 nM) plus 10 μM compound, 24 h
Description: as §1, §2

[3] = system: Nitric oxide (NO) formation in rat renal mesangial cells; assay: cytokine-stimulated NO formation in mesangial cells (Griess Reaction assay); type: cell-based; details: IL-1β (1 nM), supernatant
Description: Quiescent cells were stimulated with either DMEM (−), IL-1β (1 nM; +), in the absence or presence of the indicated concentrations of AKH-217, AVX002, or AACOCF3. Supernatants were collected and taken for nitric oxide (NO) quantification by using a Griess Reaction assay. Data are expressed as μM of NO in the supernatant and are means±S.D. (n=3).
To see whether this effect is due to altered gene transcription of iNOS, luciferase reporter gene assays were performed to measure iNOS promoter activity. A 4.5 kb fragment of the rat iNOS promoter was kindly provided by Dr. K. F. Beck (pharmazentrum frankfurt).

[4] = system: iNOS protein expression in mesangial cells; assay: cytokine-stimulated iNOS protein expression, Western blot; type: cell-based, rat; details: IL-1β (1 nM)
Description: (§3) FIGS. 4A to 4C show the effect of the inhibitors of the examples on cytokine-stimulated iNOS protein (FIG. 4A) and mRNA (FIG. 4B) expression and promoter activity in mesangiai cells. Quiescent cells were stimulated with either vehicle (DMEM), IL-1β (1 nM), in the absence (−) or presence of the indicated concentrations (in μM) of AVX001 and AVX002. EtOH, vehicle control. In FIG. 4A, cells were taken for protein extraction and equal amount of. protein were separated by SDS-PAGE and subjected to a Western blot analysis using a polyclonal antibody against iNOS at a dilution of 1:2000. Data are representative of at least 3 independent experiments giving similar results. In FIG. 4B, cells were taken for RNA extraction and subjected to quantitative PCR analysis of rat iNOS and 18 S RNA. ΔΔCt values were calculated and results are expressed as % of maximal IL-1β response and are means±S.D (n=3). In FIG. 4C, cells were transfected with the rat iNOS promoter construct plus a plasmid coding for the Renilla luciferase. After transfection, cells were stimulated with vehicle (−), IL-1β (1 nM), or IL-1β plus 10 μM of AVX001. iNOS promoter activity was calculated and results are expressed as relative luciferase units (RLU) and are means±S.D.(n=3).
(§4) To see whether this effect is due to altered gene transcription of iNOS, luciferase reporter gene assays were performed to measure iNOS promoter activity. […]

rat iNOS promoter = assay: iNOS promoter activity, luciferase reporter gene assay; type: cell-based; details: IL-1β (1 nM) plus 10 μM compound
Description: as §3, §4

mesangial cells = assay: [3H]thymidine incorporation in mesangial cells (proliferation); type: cell-based, rat; details: insulin (100 ng/ml), IGF (50 ng/ml) or ATP (100 μM), 24 h
Description: FIGS. 5A and 5B show the effect of the inhibitors of the examples on [^3H]thymidine incorporation in mesangial cells. In FIG. 5A, quiescent cells were stimulated for 24 h with vehicle (DMEM), or 100 μM of ATP in the absence (−) or presence of the indicated concentrations of AVX001 or AVX002, in the presence of [^3H]thymidine. In FIG. 5B, cells were stimulated for 24 h with insulin (100 ng/ml) or IGF (50 ng/ml) in the absence (−) or presence of 10 μM of AVX001 or AVX002, in the presence of [^3H]thymidine. Thymidine incorporated into DNA was determined and results are expressed as % of control and are means±S.D. (n=3). Glomerulonephritis is characterized in a first early phase by increased mesangial apoptosis which in a second phase is replaced by an opposite event, i.e. hyperproliferation of mesangial cells. Many previous studies have shown that quiescent mesangial cells in culture can re-enter the cell cycle when exposed to various growth factors, including PDGF, insulin, insulin-like growth factor (IGF), or extracellular nucleotides such as ATP and UTP. […] In the presence of either AKH217 or AVX002, agonist-stimulated [^3H]thymidine incorporation is reduced (FIGS. 5A and 5B). Similar data were also obtained when cells were stimulated with PDGF.

phospho-p65 (NFκB) = assay: IL-1β-stimulated NFκB activation, phospho-p65 Western blot; type: cell-based, rat; details: IL-1β (2 nM) 30 min, 10 μM compound pretreated 2 h
Description: FIGS. 6A to 6C show the effect of the inhibitors of the examples on IL-1β-stimulated NFκB activation in mesangial cells. In FIG. 6A, quiescent cells were stimulated for 30 min with either vehicle (DMEM), or IL-1β (2 nM) in the absence (−) or presence (+) of AVX001 or AVX002 (10 μM, pretreated 2 h). Thereafter, cell lysates were separated by SDS-PAGE and subjected to a Western blot analysis using a polyclonal antibody against phospho-p65 (NFκB) (upper panel), HuR as a loading control (middle panel), and IκB (lower panel). Data in FIG. 6A show duplicates of one representative experiments. FIGS. 6B and 6C show the densitometric evaluation of NFkB and IkB bands.
NFkB activation was measured by Western blot analyses by detecting the amount of phospho-p65 which represents the active transcription factor subunit.

effect on IL-1β-stimulated sPLA2 promoter activity (rat IIA-sPLA2 promoter): completely reduced | effect on IL-1β-stimulated iNOS promoter activity (rat iNOS promoter): completely lost
Compound: CC/C=C\C/C=C\C/C=C\C/C=C\CC/C=C/CSCC(=O)C(F)(F)F [AKH-217]
effect on IIA-sPLA2 protein expression and secretion [1]: able to reduce | effect on IIA-sPLA2 mRNA expression [2]: able to reduce | effect on IL-1β-stimulated NO formation [3]: reduced in a dose-dependent manner | effect on IL-1β-induced iNOS protein expression [4]: down-regulated | effect on agonist-stimulated [3H]thymidine incorporation (mesangial cells): reduced | effect on IL-1β-induced increase of phospho-p65 (phospho-p65 (NFκB)): reduced
